Measured values reported in ChEMBL document CHEMBL1201862, “PubChem BioAssay data set” (2004).
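Results reflect a 48-hour exposure of cells in 96-well plates to compound at five concentrations. GI50 is the concentration that inhibits growth by half.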 The source made the active and inactive calls. Cut-off read from the data, not from the text of the source: active = GI50 up to about 1.1 µM and inactive = higher.

Legend:
Assay in all cases: inhibition of tumour cell growth, NCI panel, 48 h
Hs-578T = test system: Hs-578T
HT-29 = test system: HT-29
NCI-H460 = test system: NCI-H460
HCT-15 = test system: HCT-15
NCI-H522 = test system: NCI-H522
A498 = test system: A498
MDA-N = test system: MDA-N
CCRF-CEM = test system: CCRF-CEM
EKVX = test system: EKVX
U-251 = test system: U-251
SN12C = test system: SN12C
MCF7 = test system: MCF7
BT-549 = test system: BT-549
SNB-75 = test system: SNB-75
SW-620 = test system: SW-620
SF-295 = test system: SF-295
SK-OV-3 = test system: SK-OV-3
OVCAR-3 = test system: OVCAR-3
NCI-H23 = test system: NCI-H23
HCC 2998 = test system: HCC 2998

Structure (SMILES) | GI50 (Hs-578T) | GI50 (HT-29) | GI50 (NCI-H460) | GI50 (HCT-15) | GI50 (NCI-H522) | GI50 (A498) | GI50 (MDA-N) | GI50 (CCRF-CEM) | GI50 (EKVX) | GI50 (U-251) | GI50 (SN12C) | GI50 (MCF7) | GI50 (BT-549) | GI50 (SNB-75) | GI50 (SW-620) | GI50 (SF-295) | GI50 (SK-OV-3) | GI50 (OVCAR-3) | GI50 (NCI-H23) | GI50 (HCC 2998)
O=C(NCCCCCCCCNC(=O)c1cc(-c2ccccc2)nc2ccccc12)c1cc(-c2ccccc2)nc2ccccc12 | 28.7 µM (inactive) | > 100 µM (inactive) | > 100 µM (inactive) | > 100 µM | 87.7 µM (inactive) | > 100 µM (inactive) | > 100 µM (inactive) | > 100 µM (inactive) | > 100 µM (inactive) | 35.3 µM (inactive) | > 100 µM (inactive) | > 100 µM (inactive) | 57.7 µM (inactive) | 38.6 µM (inactive) | > 100 µM (inactive) | > 100 µM (inactive) | > 100 µM (inactive) | > 100 µM (inactive) | > 100 µM (inactive) | 
O=C(O)CC(Sc1ccccc1)c1ccccc1 (stereo not given) | > 100 µM (inactive) | > 100 µM (inactive) |  | > 100 µM | > 100 µM (inactive) | > 100 µM (inactive) | > 100 µM (inactive) |  | > 100 µM (inactive) | > 100 µM (inactive) | > 100 µM (inactive) | > 100 µM (inactive) | > 100 µM (inactive) | > 100 µM (inactive) | > 100 µM (inactive) | > 100 µM (inactive) | > 100 µM (inactive) | > 100 µM (inactive) | > 100 µM (inactive) | 
COc1ccc2oc(=O)cc(C)c2c1 | > 100 µM (inactive) | > 100 µM (inactive) | > 100 µM (inactive) |  | > 100 µM (inactive) | > 100 µM (inactive) | > 100 µM (inactive) | > 100 µM (inactive) | 21 µM (inactive) | > 100 µM (inactive) | > 100 µM (inactive) | > 100 µM (inactive) | > 100 µM (inactive) | 88.5 µM (inactive) | > 100 µM (inactive) | > 100 µM (inactive) |  | > 100 µM (inactive) | > 100 µM (inactive) | > 100 µM (inactive)
CCCc1c(O)nc2ccccc2c1O | > 100 µM (inactive) | > 100 µM (inactive) | > 100 µM (inactive) | > 100 µM | > 100 µM (inactive) | > 100 µM (inactive) | > 100 µM (inactive) | > 100 µM (inactive) | > 100 µM (inactive) | > 100 µM (inactive) | > 100 µM (inactive) | > 100 µM (inactive) | > 100 µM (inactive) | > 100 µM (inactive) | > 100 µM (inactive) | > 100 µM (inactive) |  | > 100 µM (inactive) | > 100 µM (inactive) | > 100 µM (inactive)
c1ncc(C23C4C5C6C4C2C6C53)[nH]1 (stereo not given) | > 100 µM (inactive) | > 100 µM (inactive) | > 100 µM (inactive) | > 100 µM |  | > 100 µM (inactive) | > 100 µM (inactive) | > 100 µM (inactive) | > 100 µM (inactive) | > 100 µM (inactive) | > 100 µM (inactive) | > 100 µM (inactive) | > 100 µM (inactive) | > 100 µM (inactive) | > 100 µM (inactive) | > 100 µM (inactive) | > 100 µM (inactive) | > 100 µM (inactive) | > 100 µM (inactive) | > 100 µM (inactive)
CC1=CC(C/C(C)=C/COc2ccc3ccc(=O)oc3c2)OC1=O (stereo not given) | > 100 µM (inactive) | > 100 µM (inactive) | > 100 µM (inactive) | 95.9 µM | > 100 µM (inactive) |  | 68.9 µM (inactive) | > 100 µM (inactive) | > 100 µM (inactive) | 90.4 µM (inactive) | > 100 µM (inactive) | > 100 µM (inactive) | 76.2 µM (inactive) | > 100 µM (inactive) | > 100 µM (inactive) | > 100 µM (inactive) | > 100 µM (inactive) | > 100 µM (inactive) | 50.7 µM (inactive) | > 100 µM (inactive)
CCOC(=O)c1ccc(NCC#CCN2CCCCC2)cc1 | > 100 µM (inactive) | > 100 µM (inactive) |  | 89.9 µM |  | > 100 µM (inactive) | 60.4 µM (inactive) | 19.7 µM (inactive) | > 100 µM (inactive) | > 100 µM (inactive) | > 100 µM (inactive) | 73.8 µM (inactive) | > 100 µM (inactive) |  | > 100 µM (inactive) |  | > 100 µM (inactive) | > 100 µM (inactive) | > 100 µM (inactive) | 
Nc1ccc(Oc2ccc(C3(c4ccc(Oc5ccc(N)c(O)c5)cc4)C4CC5CC(C4)CC3C5)cc2)cc1O | 2.24 µM (inactive) | 1.64 µM (inactive) | 1.73 µM (inactive) | 1.73 µM | 1.73 µM (inactive) | 5.74 µM (inactive) | 2.03 µM (inactive) | 2.82 µM (inactive) | 2.2 µM (inactive) | 1.7 µM (inactive) | 1.9 µM (inactive) | 1.67 µM (inactive) | 1.66 µM (inactive) |  | 1.77 µM (inactive) | 3.06 µM (inactive) | 2.45 µM (inactive) | 1.56 µM (inactive) | 1.91 µM (inactive) | 1.65 µM (inactive)
NC(C(=O)OC(=O)c1ccccc1)C(=O)OC(=O)c1ccccc1 | 59.3 µM (inactive) | > 100 µM (inactive) | > 100 µM (inactive) | > 100 µM | > 100 µM (inactive) | > 100 µM (inactive) | > 10 µM (inactive) | > 100 µM (inactive) | > 100 µM (inactive) | > 100 µM (inactive) | > 100 µM (inactive) | > 100 µM (inactive) | > 100 µM (inactive) | > 100 µM (inactive) | > 100 µM (inactive) | > 100 µM (inactive) |  | > 100 µM (inactive) | > 100 µM (inactive) | 
CC(C(=O)n1ccnc1)N1c2ccccc2Sc2ccccc21 (stereo not given) | > 100 µM (inactive) | 90.4 µM (inactive) | 92 µM (inactive) | 97.5 µM |  | 47.2 µM (inactive) | > 100 µM (inactive) | 84.7 µM (inactive) | 88.3 µM (inactive) | 64.4 µM (inactive) | 96.6 µM (inactive) | 53.1 µM (inactive) | > 100 µM (inactive) | 40.6 µM (inactive) | > 100 µM (inactive) | > 100 µM (inactive) | 97.7 µM (inactive) | 38.5 µM (inactive) | 78.7 µM (inactive) | 
OC[C@@H](O)[C@H](O)[C@@H](O)/C=N/Nc1ccc(Cl)nn1 | > 100 µM (inactive) | > 100 µM (inactive) | > 100 µM (inactive) | > 100 µM | > 100 µM (inactive) | > 100 µM (inactive) | > 100 µM (inactive) | > 100 µM (inactive) | > 100 µM (inactive) | > 100 µM (inactive) | > 100 µM (inactive) | > 100 µM (inactive) | > 100 µM (inactive) |  | > 100 µM (inactive) | > 100 µM (inactive) | > 100 µM (inactive) | > 100 µM (inactive) | > 100 µM (inactive) | > 100 µM (inactive)
